{
  "source": "patent US20040132969A1",
  "about": "“Antibodies, peptides, analogs and uses thereof” (priority 2000, published 2004)",
  "key": {"HUVEC and fibroblasts": {"system": "HUVEC and fibroblasts", "assay": "BrdU ELISA cell proliferation cytotoxicity assay", "format": "cell-based, human", "conditions": "HUVEC and fibroblast monocultures; 24 hours", "description": "In order to determine whether the fibrin E analogue peptides WTM33, WTM34, WTM35, WTM36, and WTM37 are cytotoxic when applied to the HUVEC and fibroblasts used in the Angiosys™ angiogenesis assay, these reagents were examined in two different cytotoxicity assays. To simplify performance of these assays and discriminate between fibroblasts and HUVEC, cells were grown in monocultures rather than together and then treated with the experimental reagents as described below.\nCytotoxicity of the fibrin E peptide analogues was also determined by examining cell proliferation, using a commercial BrdU ELISA (Roche Molecular Biochemicals) performed according to the manufacturer's instructions. This assay quantifies DNA synthesis as a measure of cellular proliferation, as stimulation or inhibition of cell replication will require a concomitant change in the rate of DNA synthesis. Measurement of DNA synthesis is achieved by incubating proliferating cells in medium in which thymidine has been replaced with the pyrimidine analogue 5-bromo-2′-deoxyuridine (BrdU). Once incorporated into the cellular DNA, BrdU is measured by immunoassay. Briefly, HUVEC and fibroblasts were seeded as monocultures into 96 well plates at a density of 5×10^3 cells per well, to a final volume of 100 μl per well in endothelial cell culture medium. At the end of an initial culture period of 72 hours under standard conditions, while the cells were still proliferating, fibrin E analogue peptides were added to a range of final concentrations, as shown in the FIG. 8. Each treatment concentration of each peptide was administered to four replicate wells. Control cells received standard medium without test compounds. The cells were incubated for 24 hours with the test compounds, before 10 μl of stock BrdU solution (100 μM) was added to give a final concentration of 10 μM BrdU, and the cells were incubated for a further 2 hours. The test medium was then removed from the cells and replaced with 200 μl per well of Fixing/Denaturing solution, which was incubated on the cells for a further 30 minutes at room temperature. This was then replaced with 100 μl per well anti-BrdU-POD (mouse monoclonal clone BMG 6H8, Fab fragments conjugated to peroxidase) prepared as directed, which was left on the cells for a further 90 minutes at room temperature. The antibody conjugate was then removed from the wells by rinsing three times in 200 μl per well of washing buffer (PBS) before 100 μl well substrate solution (tetramethyl-benzidine) was added and incubated at room temperature until colour development was sufficient for photometric detection (approximately 15 minutes). Absorbance at 370 nm was measured on a multi-well plate ELISA plate reader (Dynatech), with a reference wavelength of 492 nm. Mean absorbance values from each group of four wells were calculated and expressed as a percentage±standard deviation of the mean value obtained from control wells incubated in the absence of fibrin E analogue peptide."}, "[1]": {"system": "FDP induced cell proliferation in the chick CAM", "assay": "CAM cell proliferation assay in the presence of FDP", "format": "in vivo", "description": "Cell proliferation was measured using the chick chorioallantoic membrane (CAM) model as described previously (4, 29, 30).\nBriefly, on day zero, fertile hens' eggs, are placed in an egg incubator 37.5° C. with pointed ends facing downwards. On day 3, using a 2 ml syringe with a 21G needle, 2 ml of albumen is removed and the eggs returned to the incubator. On day 4, each egg is punctured by a needle at the blunt end into the air space. A square of shell is then removed, causing the egg contents to drop into the space left by collapse of the air space at the end of the egg and the withdrawal of albumen. The volume of the space above the dropped CAM is approximately 7 ml. The square opening in the shell is covered with Sellotape (RTM). The eggs then have to be kept level in the incubator without tilting. On day 10, the surviving eggs are organised into groups of preferably no less than 10. Test and control samples are prepared and each egg receives 0.3 ml of sample injected through the Sellotape (RTM) onto the upper surface of the CAM.\nThe technique of removal of each CAM is simple but crucial to the rationale of achieving results expressed as total DPM per CAM. By 20 min, methyl-[^3H]thymidine is incorporated only into the CAM which has been directly exposed. Beyond 30 min, [^3H]thymidine becomes detectable in adjacent CAM that is applied to the shell, via uptake from the bloodstream. Each CAM is removed by holding the egg in the palm of one hand, Sellotape window face down, and piercing the side with pointed scissors well above the level of the dropped CAM. Scissors are used to cut round the shell, and the residual yolk and embryo tipped out into a disposal container once the umbilical vessels connecting the embryo to the CAM are cut. […]\nThe assay used is based on quantitative measurement of DNA synthesis in the CAM after exposure to control and test substances 18 h after application in liquid form to the whole “dropped” area of each CAM (4,29). […]"}},
  "note": "“Also recorded” adds a separate entry of the source.",
  "data": [
    {"sequence": "LHADPDLGVLCPTGC [WTM34]", "values": [
      {"measurement": "cytotoxicity / cell proliferation, BrdU assay", "setting": "HUVEC and fibroblasts", "result": "not cytotoxic; also recorded: no toxicity"},
      {"measurement": "effect on FDP-induced stimulation of cell proliferation", "setting": "[1]; low / lower concentrations of peptide, 5 μM FDPs", "result": "significant inhibition of the FDP induced stimulation"},
      {"measurement": "effect on FDP-induced stimulation of cell proliferation", "setting": "[1]; peptide at 4.633 μM and 9.265 μM, 5 μM FDPs", "result": "does not appear to affect the FDP-induced stimulation of cell proliferation"},
      {"measurement": "effect on FDP-induced stimulation of cell proliferation", "setting": "[1]; peptide in the presence of FDPs (5 μM) / fibrin", "result": "some inhibitory effect"}
    ]}
  ]
}
